From paper PMC7948515 (ACS chemical neuroscience, 2020) come the findings set out here.

As a reminder, the IC50 is the concentration that gives 50% inhibition. High values mean weaker potency, low ones greater potency.

The target in the assay is T1, horse spleen apoferritin (HSAF) (Equus caballus, UniProt P02791).
T1 sequence (P02791 2-175): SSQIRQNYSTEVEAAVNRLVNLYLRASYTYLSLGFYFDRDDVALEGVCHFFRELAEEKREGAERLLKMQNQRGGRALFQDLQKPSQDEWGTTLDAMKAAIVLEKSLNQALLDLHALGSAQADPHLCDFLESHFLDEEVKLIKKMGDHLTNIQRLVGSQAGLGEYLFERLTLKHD
The assay can be described thus: 1-AMA fluorescence displacement. The class given is binding.

For `CC(C)c1cccc(C2(C(F)(F)F)N=N2)c1F` [compound 1, 3-(2-fluoro-3-isopropylphenyl)-3-(trifluoromethyl)-3H-diazirine], the half-inhibitory concentration (IC50) is 17 µM. `CC(C)c1cccc(C(C)C)c1F` [fropofol]: the IC50 came out at 11 µM.
